According to patent publication US9452152B2, “Fe(III) complex compounds for the treatment and prophylaxis of iron deficiency symptoms and iron deficiency anemias” (Vifor (International) AG, priority 2012, dated 2016):

What was measured:
[1] = system: Male NMRI (SPF) mice fed a low-iron diet; assay: Fe utilization in iron-deficient mouse model (hemoglobin and body weight increase); type: in vivo; conditions: for Utilization n 15 d (abs. %): mice, stomach tube, 2 mg iron/kg body weight/day, days 1-5 and 8-12, utilization on day 15; for iron utilization, Example according to the invention: comparison table, compounds of the invention
Experimental: The excellent Fe utilizations that can be accomplished through the Fe complexes according to the invention were measured by means of the following mouse model.
(In each case 6 animals per substance were used. There was a negative group (water) with 6 animals and as a positive group FeSO4 was used with 6 animals, too).
Male NMRI (SPF) mice (approximately 3 weeks old) were fed a low-iron diet (approx. 5 ppm iron) for approximately 3 weeks. The iron complexes were then administered to them by means of a stomach tube (2 mg iron/kg body weight/day) for 2 times 5 days, with an interruption of 2 days (days 1-5 and 8-12). Utilization on day 15 was calculated from the hemoglobin increase and the body weight increase in accordance with the formula
0.07=Factor for 70 ml blood per kg body weight (BW)
Hb1=Hemoglobin level (g/l) on day 1
Hb2(3)=Hemoglobin level (g/I) on day 8 (or 15)
BW4=body weight (g) on day 1
BW9(14)=body weight (g) on day 8 (or 15)
Hb1 Control=average hemoglobin level (g/l) on day 1 in the control group,
Hb2(3) Control=average hemoglobin level (g/l) on day 8 (or 15) in the control group,
BW4 Control=average body weight (g) on day 1 in the control group,
BW9(14) Control=average body weight (g) on day 8 (or 15) in the control group,
Fe Dos.=entire administered iron (mg Fe) over 5 or 10 days,
Δ Utilization=Fe tot. utilized (examined group)−Fe ut. Control group, utilized from food, (mg Fe)

[2] = Comparison of the pH-dependent solubility (photometric iron determination); type: physicochemical; conditions: water, pH 6.5 (phthalate buffer 0.1 m), 4 h, 25° C.; for Solubility based on amount of iron: ">" = weighed amount completely dissolved
Text: The pH was adjusted to 6.5 with a phthalate buffer (0.1 m). […] UV device type SPECORD 205 manufacturer Jena Analytik). This value represents the solubility of the iron complex. If the weighed amount of the iron complex was completely dissolved, the measured value was indicated by the prefix “>”.

Substance | Utilization n 15 d (abs. %) [1] [abs. %] | iron utilization, Example according to the invention ([1]; mouse model) [%] | optical evaluation: dissolved? [2] | Solubility based on amount of iron [2] [mg/mL] | iron utilization (statement in words) ([1]; mouse model)
Tris-(2,4-dioxo-4-(pyrrolidine-1-yl)butaneamide)-iron(III)-complex [Example 4] | 92 | – | – | – | –
Tris-(4-(morpholine-4-yl)-2,4-dioxobutaneamide)-iron(III)-complex [Example 2] | 75 | 75 | – | – | –
Tris-(N,N,N′,N′-tetramethyl-2-oxobutanediamide)-iron(III)-complex [Example 5] | 82 | 82 | yes | >0.55 | –
Tris-(N,N-Dimethyl-3,4-dioxo-4-(pyrrolidine-1-yl)butaneamide)-iron(III) complex [Example 11] | 50 | – | – | – | –
Tris-(N^1,N^4,N^4-trimethyl-2-oxobutanediamide)-iron(III)-complex [Example 7] | 68 | – | – | – | –
Tris-(N^1-(2-methoxyethyl)-N^4,N^4-dimethyl-2-oxobutanamid)-iron(III)-complex [Example 16] | 65 | – | no | 0.45 | –
Tris-(N^1-[2-(dimethylamino)-2-oxoethyl]-N^1,N^4,N^4-trimethyl-2-oxobutanediamide)-iron(III)-complex [Example 18] | 78 | – | no | 0.58 | –
Tris-(N^4,N^4-dimethyl-2-oxobutanediamide)-iron(III)-complex [Example 1] | 98 | 98 | yes | 0.529 | significantly improved iron utilization compared to Example 32 of WO11117225A1
Tris-(N^4-(2-hydroxyethyl)-N^1,N^1,N^4-trimethyl-2-oxobutanediamide)-iron(III)-complex [Example 21] | 86 | 86 | no | 0.49 | –
Tris-(N^4-(2-methoxyethyl)-N^1,N^1,N^4-trimethyl-2-oxobutanediamide)-iron(III)-complex [Example 13] | 70 | – | yes | >0.52 | –
Tris-(N^4-[2-(dimethylamino)-2-oxoethyl]-N^1,N^1,N^4-trimethyl-2-oxobutanediamide)-iron(III)-complex [Example 12] | 80 | – | yes | >0.51 | –
Tris-(ethyl-N-[4-(dimethylamino)-2,4-dioxobutanoyl]-N-methylglycinate)-iron(III)-complex [Example 17] | 91 | – | no | 0.47 | –
